Laboratory results taken from patent EP0343258B1, “AGENT FOR PROPHYLAXIS AND TREATMENT OF VIRALLY INFECTED DISEASES” (MITSUI TOATSU CHEMICALS, Inc., priority 1987, dated 1989).
Non-standard residues stand in square brackets, D forms with d. Residues, ends and D or L forms follow the SMILES beside them. pGlu = O=C1CC[C@@H](C(=O)O)N1

Legend:
[1] = Toxicity test, repeated subcutaneous administration to rats; type: in vivo, wister rats; conditions: 30 mg/kg subcutaneously for consecutive 21 days
Text: (§1) Thus, the medicament of the present invention is a safe medicament of extremely low toxicity and can be administered for a long period of time.

[2] = Toxicity test, repeated subcutaneous administration to mice; type: in vivo, ddy male mice
Text: as §1

REO virus type II = assay: Jerne plaque assay (antibody-forming cells against SRBC) in REO virus-infected new-born NC mice; type: in vivo; conditions: 10⁵ PFU REO virus; MDP 20 µg/mouse with Freund incomplete adjuvant, given with SRBC 2 weeks after infection; measured 4 days later
Procedure: Two weeks after the infection of 10⁵ PFU REO virus, sheep red blood cells (referred to hereinafter simply as SRBC) was intraperitoneally administered and 4 days after the administration, the number of hemolysis plaques was measured by way of Jerne plaque assay as a production amount of antibody-forming cells against SRBC. The number of hemolysis plaques was 15±2 per 10⁶ spleen cells in a group not infected with REO virus, while that was 2.8±1.6 in an infected group, thus showing a remarkable immunity inhibitory state. In compliance with this, atrophy of thymus and decrease in the number of thymic cortex lymphocytes were observed.
In a group to which muramyl dipeptide was administered in an amount of 20 µg/mouse together with Freund incomplete adjuvant, the number of hemolysis plaques was 11±2.
Next, recovery of the immune function by immunity-enhancing substance was examined, using new-born mice infected with REO virus type II. Two weeks after the infection of the mice with the virus, sheep red blood cells were administered to the mice, and 4 days after the administration, Jerne plaque assay was carried out to measure the number of hemolysis plaques. […]
Mice infected with virus was immunized at the same time with SRBC and an immunostimulant, and 4 days after the immunization, the number of hemolysis plaques was measured by Jerne plaque assay. […]

| Compound | abnormal symptom in external behavior observation, biochemical diagnosis of sera and pathological anatomy [1] | toxicity [1] | toxicity ([2]; 50 mg/kg and 100mg/kg subcutaneously for consecutive 14 days) | abnormal symptom by external check ([2]; 100 mg/kg subcutaneously every day for consecutive 14 days) | PFC/10⁶ spleen cells (REO virus type II) |
| --- | --- | --- | --- | --- | --- |
| C[C@H](NC(=O)[C@@H]1CCC(=O)N1)C(=O)N[C@@H](CCCCN)C(=O)N[C@@H](CO)C(=O)N[C@@H](CCC(N)=O)C(=O)NCC(=O)NCC(=O)N[C@@H](CO)C(=O)N[C@@H](CC(N)=O)C(=O)O [FTS, pGlu-Ala-Lys-Ser-Gln-Gly-Gly-Ser-Asn] ([pGlu]AKSQGGSN-OH) | no abnormal symptom was found | No toxicity was observed | No toxicity was observed | no abnormal symptom was found |  |
| CC(=O)N[C@H]1C(O)O[C@H](CO)[C@@H](O)[C@@H]1O[C@H](C)C(=O)N[C@@H](C)C(=O)N[C@H](CCC(=O)O)C(N)=O (some centres unmarked) [MDP, muramyl dipeptide] |  |  |  |  | 11±2 PFC/10⁶ spleen cells |
